These results are taken from PMC6522510 (Nature Communications, 2019).

What all share (design): species or system AML cell lines (8); Primary HTS, single concentration about 10 uM, Cell Titer Glo viability; log10 luminescence, per cent inhibition relative to cycloheximide control
Details in all cases: 72 h, relative to cycloheximide control, log10 luminescence; inhibitor
On the technique in general: Cellular ATP, detected with luciferase, serves as a proxy for viable cell number.

The subject of assay [1] is U937.
For assay [2], the system named is MOLM-13.
The subject of assay [3] is ML-2.
Assay [4] has as its system CHRF288-11.
In assay [5] the test system is CMK.
In assay [6] the test system is CMS.
The subject of assay [7] is MV4-11.
Assay [8] has as its system M07e.

As for `CC(=O)N[C@@H](Cc1ccc(OP(=O)(O)O)cc1)C(=O)N[C@H]1CCC(=O)N2CCC[C@@H](C(=O)NCc3ccccc3)N2C1=O` [SJ000581025-1], the U937 %inh in assay [1] is given as 0.2421%. Further, in assay [2], the MOLM-13 %inh amounted to 0.5747%. Further, in assay [3], the ML-2 %inh was determined as 0.2617%. In assay [4], the CHRF288-11 %inh was 3.231%. Also, the CMK %inh in assay [5] is given as -3.468%. Further, the CMS %inh in assay [6] came to 0.9205%. Moreover, in assay [7], the MV4-11 %inh is on record as -4.371%. Moreover, the M07e %inh in assay [8] was -1.273%.

On to `CNCC1CCn2c(c(C3=C(c4cn(C)c5ccccc45)C(=O)NC3=O)c3ccccc32)C1` (centres unmarked) [SJ000581026-1], for which the U937 %inh in assay [1] is listed as 3.941%. Also, in assay [2], the MOLM-13 %inh amounted to 5.409%. Also, in assay [3], the ML-2 %inh is listed as 5.596%. For the same molecule, in assay [4], the CHRF288-11 %inh is 5.735%. Also, the CMK %inh in assay [5] worked out at 19.67%. The CMS %inh in assay [6] turned out to be 2.453%. For the same molecule, the MV4-11 %inh in assay [7] turned out to be 3.218%. For the same molecule, in assay [8], the M07e %inh was 4.053%.

For `COc1cc[nH]c1/C=C1\C(=O)Nc2ccccc21` [SJ000581028-1], in assay [1], the U937 %inh is on record as -1.475%. In assay [2], the MOLM-13 %inh worked out at 93.27%. For the same molecule, in assay [3], the ML-2 %inh was 2.572%. In addition, the CHRF288-11 %inh in assay [4] worked out at 5.171%. Also, the CMK %inh in assay [5] is on record as 2.429%. In addition, the CMS %inh in assay [6] is -2.846%. Besides, the MV4-11 %inh in assay [7] turned out to be 72.48%. The M07e %inh in assay [8] is 0.1646%.

Turning to `Cn1cc(C2=C(c3cn(CCCN)c4ccccc34)C(=O)NC2=O)c2ccccc21` [SJ000581029-1, RO 31-7549], the U937 %inh in assay [1] is on record as 0.8505%. In assay [2], the MOLM-13 %inh was 8.447%. Also, the ML-2 %inh in assay [3] is listed as -0.6707%. Moreover, the CHRF288-11 %inh in assay [4] is 63.26%. The CMK %inh in assay [5] was 7.447%. The CMS %inh in assay [6] is on record as -0.005694%. In assay [7], the MV4-11 %inh came to 2.189%. Further, the M07e %inh in assay [8] was -0.4351%.

For the molecule `COc1cc(F)c(F)cc1C(=O)c1cnc(NC2CCN(S(C)(=O)=O)CC2)nc1N` [SJ000581030-1], the U937 %inh in assay [1] was determined as 15.86%. Besides, in assay [2], the MOLM-13 %inh is given as 17.32%. Also, the ML-2 %inh in assay [3] worked out at 12.87%. For the same molecule, in assay [4], the CHRF288-11 %inh is given as 9.313%. Further, the CMK %inh in assay [5] is reported as 33.04%. For the same molecule, the CMS %inh in assay [6] was 6.337%. Moreover, the MV4-11 %inh in assay [7] is reported as 13.02%. For the same molecule, in assay [8], the M07e %inh came to 10.16%.

For the molecule `Cc1ccccc1-n1ncc(C(=O)c2ccccc2)c1N` [SJ000581031-1], the U937 %inh in assay [1] worked out at 4.01%. Also, the MOLM-13 %inh in assay [2] was determined as 0.4251%. In addition, the ML-2 %inh in assay [3] is reported as 1.074%. Moreover, the CHRF288-11 %inh in assay [4] is reported as -2.402%. The CMK %inh in assay [5] was -0.4181%. In addition, in assay [6], the CMS %inh is on record as -2.229%. Besides, in assay [7], the MV4-11 %inh is reported as -0.9776%. Moreover, the M07e %inh in assay [8] is on record as 0.1374%.

For the molecule `Cn1c(=O)c(Cc2ccc(F)cc2F)cc2cnc(NC3CCOCC3)nc21` [SJ000581032-1], in assay [1], the U937 %inh is on record as -0.7764%. Further, the MOLM-13 %inh in assay [2] is recorded as 4.514%. Also, the ML-2 %inh in assay [3] stood at 0.882%. Further, in assay [4], the CHRF288-11 %inh is -3.947%. Further, the CMK %inh in assay [5] is 3.89%. Besides, in assay [6], the CMS %inh turned out to be 0.5188%. Moreover, the MV4-11 %inh in assay [7] worked out at 0.6569%. For the same molecule, the M07e %inh in assay [8] amounted to 1.669%.

For the molecule `Nc1c(C(=O)c2cccc(CCCN3CCOCC3)c2)cnn1-c1ccc(F)cc1` [SJ000581033-1], the U937 %inh in assay [1] is 0.5296%. Further, the MOLM-13 %inh in assay [2] is -0.1425%. The ML-2 %inh in assay [3] was found to be 2.815%. In assay [4], the CHRF288-11 %inh is 0.5002%. Besides, in assay [5], the CMK %inh was -2.511%. For the same molecule, in assay [6], the CMS %inh was -0.1935%. In addition, the MV4-11 %inh in assay [7] is reported as -0.6007%. Also, the M07e %inh in assay [8] worked out at 1.168%.

For `O=C1NC(=NCCc2ccccc2Cl)S/C1=C\c1ccc2ncccc2c1` [SJ000581034-1], in assay [1], the U937 %inh was 0.6904%. In assay [2], the MOLM-13 %inh is listed as 1.218%. The ML-2 %inh in assay [3] turned out to be 3.879%. The CHRF288-11 %inh in assay [4] is listed as -2.34%. In addition, in assay [5], the CMK %inh is recorded as -2.328%. Besides, in assay [6], the CMS %inh is on record as 1.664%. Moreover, in assay [7], the MV4-11 %inh was -0.3328%. Further, the M07e %inh in assay [8] is given as 0.7717%.

With `CSc1c(C2=C(c3cn(C)c4ccccc34)C(=O)NC2=O)c2ccccc2n1C` [SJ000581035-1], the U937 %inh in assay [1] is on record as 26.62%. Besides, the MOLM-13 %inh in assay [2] is recorded as 28.45%. Moreover, in assay [3], the ML-2 %inh came to 21.47%. Besides, the CHRF288-11 %inh in assay [4] is given as 9.742%. Also, the CMK %inh in assay [5] was 87.18%. Also, the CMS %inh in assay [6] is reported as 16.27%. In addition, the MV4-11 %inh in assay [7] is listed as 31.9%. Further, the M07e %inh in assay [8] amounted to 31.51%.

Consider `CN(C)CC#Cc1cccc(C(=O)c2cnn(-c3ccc(F)cc3)c2N)c1` [SJ000581036-1], for which the U937 %inh in assay [1] turned out to be 6.781%. The MOLM-13 %inh in assay [2] is 29.95%. For the same molecule, in assay [3], the ML-2 %inh amounted to 0.4348%. In addition, the CHRF288-11 %inh in assay [4] is given as -3.732%. The CMK %inh in assay [5] is 1.135%. In addition, in assay [6], the CMS %inh was 3.514%. Further, the MV4-11 %inh in assay [7] was 0.9409%. The M07e %inh in assay [8] was found to be 2.548%.

For `Nc1c(C(=O)c2cccc(-c3cccnc3)c2)cnn1-c1ccc(F)cc1` [SJ000581038-1], the U937 %inh in assay [1] was 0.8257%. In addition, the MOLM-13 %inh in assay [2] came out at 1.631%. Moreover, the ML-2 %inh in assay [3] is listed as 2.13%. In addition, in assay [4], the CHRF288-11 %inh is -0.1911%. For the same molecule, the CMK %inh in assay [5] is given as -3.194%. The CMS %inh in assay [6] turned out to be 0.2916%. Besides, the MV4-11 %inh in assay [7] amounted to 1.728%. For the same molecule, the M07e %inh in assay [8] amounted to 5.379%.

In the case of `O=c1c(Oc2ccc(F)cc2F)cc2cnc(NC3CCOCC3)nc2n1C1CC1` [SJ000581039-1], the U937 %inh in assay [1] was -0.2909%. Moreover, the MOLM-13 %inh in assay [2] worked out at 0.2345%. For the same molecule, the ML-2 %inh in assay [3] came out at 0.3273%. In addition, the CHRF288-11 %inh in assay [4] is 6.117%. In assay [5], the CMK %inh worked out at 4.979%. Further, the CMS %inh in assay [6] is 3.291%. Further, the MV4-11 %inh in assay [7] turned out to be 3.055%. Besides, the M07e %inh in assay [8] amounted to 4.212%.

As for `Cn1cc(C2=C(c3c([S+](C)[O-])n(C)c4ccccc34)C(=O)NC2=O)c2ccccc21` (centres unmarked) [SJ000581040-1], the U937 %inh in assay [1] is given as 0.5237%. Moreover, the MOLM-13 %inh in assay [2] was -1.878%. Further, the ML-2 %inh in assay [3] is 2.43%. Also, the CHRF288-11 %inh in assay [4] turned out to be 12.43%. Besides, the CMK %inh in assay [5] was -2.072%. Besides, the CMS %inh in assay [6] is recorded as 0.8019%. Further, the MV4-11 %inh in assay [7] is 0.5816%. Also, the M07e %inh in assay [8] came out at 1.342%.

Turning to `Cn1cc(C2=C(c3cn(CCO)c4ccccc34)C(=O)NC2=O)c2ccccc21` [SJ000581041-1], the U937 %inh in assay [1] was 14.77%. Also, the MOLM-13 %inh in assay [2] amounted to 54.73%. The ML-2 %inh in assay [3] came to 20.21%. In addition, in assay [4], the CHRF288-11 %inh came out at 72.88%. In addition, the CMK %inh in assay [5] is on record as 80.06%. Moreover, in assay [6], the CMS %inh turned out to be 9.772%. Besides, the MV4-11 %inh in assay [7] worked out at 18.13%. The M07e %inh in assay [8] amounted to 13.99%.

Turning to `Cn1c(=O)c(Oc2ccc(F)cc2F)cc2cnc(NC3CCC(O)CC3)nc21` (centres unmarked) [SJ000581046-1], in assay [1], the U937 %inh was found to be 2.264%. Also, in assay [2], the MOLM-13 %inh was 1.486%. In addition, in assay [3], the ML-2 %inh was determined as 1.601%. Besides, the CHRF288-11 %inh in assay [4] turned out to be 5.265%. Besides, in assay [5], the CMK %inh was -4.641%. Moreover, in assay [6], the CMS %inh was -2.545%. The MV4-11 %inh in assay [7] was -0.7465%. The M07e %inh in assay [8] amounted to 1.519%.

Turning to `CC(C)(O)CCc1cccc(C(=O)c2cnn(-c3ccc(F)cc3)c2N)c1` [SJ000581047-1], the U937 %inh in assay [1] is recorded as -2.635%. Also, the MOLM-13 %inh in assay [2] is reported as -1.69%. Besides, in assay [3], the ML-2 %inh came to 1.278%. The CHRF288-11 %inh in assay [4] is given as 1.391%. In addition, the CMK %inh in assay [5] is on record as -5.065%. Besides, in assay [6], the CMS %inh is reported as 5.394%. Also, the MV4-11 %inh in assay [7] is -0.34%. In addition, the M07e %inh in assay [8] was determined as 3.158%.

On to `Cc1[nH]n(-c2ccccc2)c(=O)c1C(=O)c1ccccc1` [SJ000581048-1], for which, in assay [1], the U937 %inh was -0.7202%. Moreover, the MOLM-13 %inh in assay [2] is recorded as -1.767%. Also, the ML-2 %inh in assay [3] is 0.679%. Further, in assay [4], the CHRF288-11 %inh turned out to be 3.222%. For the same molecule, the CMK %inh in assay [5] is reported as -9.373%. Besides, the CMS %inh in assay [6] was 1.313%. The MV4-11 %inh in assay [7] was -2.724%. For the same molecule, the M07e %inh in assay [8] is -0.3361%.

For the molecule `O=C1NC(=NCc2c(Cl)cccc2Cl)S/C1=C\c1ccc2ncccc2c1` [SJ000581049-1], the U937 %inh in assay [1] is given as 5.41%. In assay [2], the MOLM-13 %inh is 5.37%. In addition, in assay [3], the ML-2 %inh was 1.063%. Further, the CHRF288-11 %inh in assay [4] was -0.3937%. For the same molecule, the CMK %inh in assay [5] was -7.089%. Further, in assay [6], the CMS %inh amounted to 2.314%. Besides, the MV4-11 %inh in assay [7] is -1.821%. The M07e %inh in assay [8] is 1.964%.
